Reference: patent publication US5837728A, “9-cis retinoic acid esters and amides and uses thereof” (priority 1995, dated 1998)
Entries after “also recorded” stand apart in the source; their conditions may differ.

What was measured:
[1] = test system: ultraviolet damaged skin of hairless mice; conditions: topical tretinoin, several weeks; cited from earlier work
[2] = test system: sun-damaged, wrinkled, aged skin of the face and forearms; experiment: Topical assay for antiaging and antiactinic effects (dermatoheliosis); assay type: in vivo, human (patients)
Description: Four subjects aged 49 to 73, three females and one male having significant,easily observe, sun-damaged, wrinkled, aged skin of the face and forearms are subjects of a study to determine the effect of topical application of 2-(9-cis-retinoyloxy)-4-methoxyacetophenone in the treatment of dermatoheliosis. The three females had moderately severe sun-damaged skin and wrinkles of the forearms, hands and face. The one person has extremely severe sun damage in these areas as well as multiple actinic keratoses. The four subjects are provided with and applied to their entire faces (omitting the eyelids) and dorsal surface of the right forearm, once daily for 12 to 16 weeks, 0.1% concentration of 2-(9-cis-retinoyloxy)-4-methoxyacetophenone in a hydrophilic cream vehicle. The left forearm of each patient is treated daily with a non-medicated moisturizer of the patients choice.
All subjects are evaluated every 4 weeks through the study for redness, peeling, skin surface texture and wrinkling. Biopsies (using a 4 mm punch) are taken from the dorsal surface of the right upper forearm at the beginning of the study and again from the same area at the end of the study. The biopsies are stained with H & E, Alcian Blue and collagen/elastic stains and compared by a qualified dematopathologist.

[3] = 0.1% cream, once daily for 12 to 16 weeks

## CC1=C(/C=C/C(C)=C/C=C/C(C)=C/C(=O)O)C(C)(C)CCC1 [all-trans-retinoic acid, reference compound]
[1]
  Repair of ultraviolet damaged skin: subepidermal repair zone in the treated mice was significantly wider than that in the untreated control group; also recorded: augmented the repair of ultraviolet damaged tissue in the hairless mouse with new blood vessel formation

## COc1ccc(C(=O)COC(=O)/C=C(C)/C=C/C=C(C)\C=C\C2=C(C)CCCC2(C)C)cc1 [Compound 2, 2-(9-cis-retinoyloxy)-4'-methoxyacetophenone]
[2]; [3]
  Facial improvement of dermatoheliosis: all show an improvement in their dermatoheliosis; also recorded: Two of the four patients show very significant improvement in facial smoothness, dryness and fine wrinkling; also recorded: Moderate improvement of these parameters are observed in the other two patients
  Irritation during antiaging study: No significant irritation is experienced by any patient; also recorded: Very slight pinkness and a feeling of slight tightness in facial skin develops in two patients
[2]; 0.1% cream, once daily, within two months
  Forearm improvement in surface texture, dryness and fine wrinkling: three show improvement in surface texture (smoothness), surface dryness and fine wrinkling within two months
[2]; dorsal right forearm, 4 mm punch
  Biopsy differences before and after treatment: no significant differences in before treatment and after treatment biopsies
